{"source": "patent EP1787658B1", "about": "“Sustained release formulations of somatostatin analogue inhibitors of growth hormone” (CHEMI S.p.A., priority 2005, dated 2012)", "assay": "Plasma levels of somatostatin analogue after a single s.c. or i.m. administration, by LC/MS-MS", "assay_type": "in vivo, rats", "conditions": "after both s.c. and i.m injection", "description": "Two groups of animals were treated with a single administration each s.c. and i.m, of 100µl of the formulation (3.37 mg of oligopeptide equal to 15mg/Kg). Blood samples from 5 animals per time point were collected at different time points up to 49 days after treatment. The plasma levels of somatostine analogue were determined by a LC/MS-MS method.\nMean plasma, levels and standard deviations for each time point are shown in the table below (Table 2) and in Figures 1 and 2."}
{"smiles": "C[C@@H](O)[C@@H]1NC(=O)[C@H](CCCCN)NC(=O)[C@@H](Cc2c[nH]c3ccccc23)NC(=O)[C@H](Cc2ccccc2)NC(=O)[C@@H](NC(=O)[C@H](N)Cc2ccccc2)CSSC[C@@H](C(=O)N[C@H](CO)[C@@H](C)O)NC1=O", "note": "[Octreotide acetate]", "values": [{"measurement": "presence of detectable levels of the oligopeptide", "value": "up to 49 days"}]}
